Results published in patent US4791135A (priority 1987, dated 1988).
Values after ≈ are worked out from the molar mass of the structure shown. Where two headings read alike, the source gives them in different places.

What was measured:
[1] = Stability in 5% NaHCO3/D2O at room temperature, monitored by PMR; assay type: physicochemical
Protocol: (§1) To a 5 mm NMR tube containing 10 mg of sample was added 0.5 mL of 2.5% K2 CO3 /D2 O solution. The initial spectrum of the solution was taken within 5 minutes, and again at intervals thereafter. The extent of hydrolysis was estimated by the following equation:
(§2) % Decomposition=(B/2A+B)×100
(§3) where A=integration of H-10 (5.80 ppm, d, J=10.8 Hz, 1H) and H-12 (5.71 ppm, s, 1H) of artesunate; B=integration of the singlet at 2.42 ppm for the potassium succinate formed. With time, the intensity of potassium succinate (2.42 ppm) signal increases, while that of H-10 and H-12 of artesunate decreases. The stability study of compound 1 in 5% NaHCO3 /D2 O was also carried out by the same procedure.

[2] = background, cited from earlier work
Plasmodium berghei = assay: In vivo suppressive blood schizonticidal and curative activity in infected mice, 60 days survival; parameters: species or system Plasmodium berghei (in mice); settings: for Number active (A): active = survival time greater than twice control mice (12 to 14 days); for Number of Cures: cured = surviving 60 days
Protocol: The suppressive blood schizonticidal and curative activities of artemisinin, artelinic acid and artesunic acid, were measured in a test where mice were infected with 5.98×10^5 Plasmodium berghei parasitized cells intraperitoneally on day zero. […] The dose levels of compounds given were 640, 160, and 40 mg/kg/day. Blood films were taken on days 6, 13, and 20. Blood schizonticidal activity was determined by monitoring blood films for the appearance of parasites and for extended survival times compared to infected untreated controls. Mice surviving 60 days were considered cured. The infected untreated control mice (negative controls) died on either day 6 or 7. Compounds were considered active when the survival time of the treated mice was greater than twice the control mice, i.e., 12 to 14 days.

physchem = assay type: physicochemical
Protocol: To compare the relative stability of the new agents vs. artesunic acid, stability studies of compound 8d and compound 1 were conducted in 2.5% K2 CO3 /D2 O solution at room temperature and were monitored by PMR. [drawing 8]
as §1, §2, §3

malaria [3] = settings: background, reported; cited from earlier work
cerebral malaria = settings: background; cited from earlier work
[4] = tested on: Plasmodium falciparum D-6 (Sierra Leone clone) and W-2 (Indochina clone); assay: In vitro antimalarial activity against both clones, summarised in words; assay type: cell-based; settings: D-6 and W-2 clones
Protocol: (§4) The former clone is a strain that is resistant to mefloquine and the latter, to chloroquine, pyrimethamine, sulfadoxine, and quinine.
(§5) In vitro assays were conducted using a modification of the semiautomated microdilution technique of Desjardins et al., Antimicrob. Agents Chemoether., 1979, Volume 16, page 710 and Milhous et al., Antimicrob. Agents Chemother., 1985, Volume 27, page 525. Two P. falciparum malaria parasite clones, designated as Indochina (W-2) and Sierra Leone (D-6), were utilized in susceptibility testing. They were derived by direct visualization and micromanipulation from patient isolates obtained by the Centers for Disease Control, Atlanta, GA in 1980 and 1982, respectively. The patients had acquired infections either in Vietnam or Sierra Leone. The Indochina clone is resistant to the antimalarials chloroquine, sulfadoxine, pyrimethamine, and quinine, whereas the Sierra Leone, is resistant to mefloquine but susceptible to chloroquine, quinine, sulfadoxine, and pyrimethamine. Test compounds were initially dissolved in DMSO and 70% ethanol and diluted in RPMI 1640 culture medium with 10% human plasma to 400 fold. Drugs were subsequently further diluted using the Cetus Pro/Pette (Perkin-Elmer Corp., Norwalk, CT) over a range of 1.56-100×10^-9 molar. Parasite inocula (at 0.5% parasitemia and a 1% hematocrit) were incubated for 24 hours and added to equimolar concentrations of each test compound prior to the addition of ^3 H-hypoxanthine. After a further incubation of 18 hours, particulate matter was harvested from each microtiter well using an automated cell harvester (Skatron, Inc., Sterling, VA). Uptake of ^3 H-hypoxanthine was measured using a scintillation spectrophotometer (Model LS3801, Beckman Instruments, Irvine, CA). Concentration-response data were analyzed by nonlinear regression and the IC50 's (50% inhibitory concentrations) for each compound were calculated.

malaria [5] = settings: background; cited from earlier work
[6] = tested on: P. falciparum Indochina (W-2) clone; assay: In vitro antimalarial susceptibility, 3H-hypoxanthine uptake, Indochina (W-2) clone; assay type: cell-based, Plasmodium falciparum; settings: for IC50: Plasmodium falciparum
Protocol: as §4
as §5, with “CA).” for “CA). Concentration-response data were analyzed by nonlinear regression and the IC50 's (50% inhibitory concentrations) for each compound were calculated.”

[7] = tested on: P. falciparum Sierra Leone (D-6) clone; assay: In vitro antimalarial susceptibility, 3H-hypoxanthine uptake, Sierra Leone (D-6) clone; assay type: cell-based, Plasmodium falciparum; settings: for IC50: Plasmodium falciparum
Protocol: as §4
as §5, with “CA).” for “CA). Concentration-response data were analyzed by nonlinear regression and the IC50 's (50% inhibitory concentrations) for each compound were calculated.”

[8] = 40 mg/kg/day SC x 3 days, 5% NaHCO3
[9] = 160 mg/kg/day SC x 3 days, 5% NaHCO3
[10] = 640 mg/kg/day SC x 3 days, 5% NaHCO3
[11] = 40 mg/kg/day SC x 3 days, peanut oil

C[C@H]1[C@H](OC(=O)CCC(=O)O)O[C@@H]2O[C@@]3(C)CC[C@H]4[C@H](C)CC[C@@H]1[C@@]24OO3 [Compound 1, artesunic acid]
half-life of hydrolysis (estimated) ([1]; 5% NaHCO3): about 4.5 days
rate of hydrolysis compared with 2.5% K2CO3/D2O ([1]; 5% NaHCO3/D2O vs 2.5% K2CO3/D2O): slower
degraded at 4 h ([1]; 5% NaHCO3/D2O, room temperature, 4 hours, read-out: % Hydrolysis): < 5%
degraded at 48 h ([1]; 5% NaHCO3/D2O, room temperature, 2 days, read-out: % Hydrolysis): 22%
degraded at 72 h ([1]; 5% NaHCO3/D2O, room temperature, 3 days, read-out: % Hydrolysis): 33%
degraded at 96 h ([1]; 5% NaHCO3/D2O, room temperature, 4 days, read-out: % Hydrolysis): 45%
degraded at 192 h ([1]; 5% NaHCO3/D2O, room temperature, 8 days, read-out: % Hydrolysis): 75%
degraded at 216 h ([1]; 5% NaHCO3/D2O, room temperature, 9 days, read-out: % Hydrolysis): 82%
water solubility ([2]; listed as compound 1): water-soluble
Number active (A) (Plasmodium berghei; [8]): 2/5
Number of Cures (Plasmodium berghei; [8]): 0/5
Number active (A) (Plasmodium berghei; [9]): 3/5
Number of Cures (Plasmodium berghei; [9]): 0/5
Number of Cures (Plasmodium berghei; [10]): 5/5
half-life of hydrolysis (estimated) (physchem; 2.5% K2CO3 solution): < 24 h
degraded at 1.5 h (physchem; 2.5% k2co3/d2o): 20%
degraded at 24 h (physchem; 2.5% k2co3/d2o): 60%
degraded at 48 h (physchem; 2.5% k2co3/d2o): 75%
degraded at 72 h (physchem; 2.5% k2co3/d2o): 91%
degraded at 96 h (physchem; 2.5% k2co3/d2o): 98%

C[C@@H]1CC[C@H]2[C@@H](C)C(O)O[C@@H]3O[C@@]4(C)CC[C@@H]1[C@]32OO4 (stereo partly shown) [Compound 2, Dihydroartemisinin]
therapeutic activity compared with its parent compound artemisinin (malaria [3]): more therapeutically active than its parent compound
efficacy against cerebral malaria in man (cerebral malaria): proven efficacious against cerebral malaria in man
cross-resistance to mefloquine, chloroquine, pyrimethamine, sulfadoxine, quinine [4]: not cross-resistant
cross-resistance to chloroquine (malaria [5]): Neither artemisinin nor dihydroartemisinin exhibit cross-resistance to chloroquine

C[C@@H]1CC[C@H]2[C@@H](C)C(=O)O[C@@H]3O[C@@]4(C)CC[C@@H]1[C@]32OO4 [Compound 3, Artemisinin]
IC50 [6]: 0.66 ng/mL (≈ 2.34 nM)
IC50 [7]: 2.93 ng/mL (≈ 10.4 nM)
efficacy against cerebral malaria in man (cerebral malaria): proven efficacious against cerebral malaria in man
Blood films positive (Plasmodium berghei; 40 mg/kg, peanut oil, SC): 3 of 5
Number active (A) (Plasmodium berghei; [11]): 3/5
Number of Cures (Plasmodium berghei; [11]): 2/5
Blood films (Plasmodium berghei; 160 mg/kg, peanut oil, SC): negative
Number of Cures (Plasmodium berghei; 160 mg/kg/day SC x 3 days, peanut oil): 5/5
Blood films (Plasmodium berghei; 640 mg/kg, peanut oil, SC): negative
Number of Cures (Plasmodium berghei; 640 mg/kg/day SC x 3 days, peanut oil): 5/5
cross-resistance to mefloquine, chloroquine, pyrimethamine, sulfadoxine, quinine [4]: not cross-resistant
cross-resistance to chloroquine (malaria [5]): Neither artemisinin nor dihydroartemisinin exhibit cross-resistance to chloroquine

CCOC(=O)COC1OC2OC3(C)CCC4C(C)CCC(C1C)C24OO3 (stereo not shown) [Compound 5a, Ethyl 2-(10-Dihydroartemisininoxy)acetate]
IC50 [6]: 0.26 ng/mL (≈ 0.702 nM)
IC50 [7]: 0.6 ng/mL (≈ 1.62 nM)

COC(=O)CCOC1OC2OC3(C)CCC4C(C)CCC(C1C)C24OO3 (stereo not shown) [Compound 5b, Methyl 3-(10-Dihydroartemisininoxy)propionate]
IC50 [6]: 0.64 ng/mL (≈ 1.73 nM)
IC50 [7]: 1.84 ng/mL (≈ 4.97 nM)

COC(=O)CCCOC1OC2OC3(C)CCC4C(C)CCC(C1C)C24OO3 (stereo not shown) [Compound 5c, Methyl 4-(10-Dihydroartemisininoxy)butyrate]
IC50 [6]: 0.95 ng/mL (≈ 2.47 nM)
IC50 [7]: 3.06 ng/mL (≈ 7.96 nM)

COC(=O)c1ccc(COC2OC3OC4(C)CCC5C(C)CCC(C2C)C35OO4)cc1 (stereo not shown) [Compound 5d, Methyl p-(10-Dihydroartemisininoxy)methylbenzoate]
IC50 [6]: 0.37 ng/mL (≈ 0.855 nM)
IC50 [7]: 0.77 ng/mL (≈ 1.78 nM)

CC1CCC2C(C)C(OCC(=O)O)OC3OC4(C)CCC1C32OO4 (stereo not shown) [Compound 7a, Potassium 2-(10-Dihydroartemisininoxy)acetate]
IC50 [6]: 26.2 ng/mL
In vitro antimalarial activity IC50, Sierra Leone (D-6) [7]: 53.79 ng/mL

CC1CCC2C(C)C(OCCC(=O)O)OC3OC4(C)CCC1C32OO4 (stereo not shown) [Compound 7b, Potassium 3-(10-Dihydroartemisininoxy)propionate]
In vitro antimalarial activity IC50, Indochina Clone (W-2) [6]: 23.28 ng/mL
In vitro antimalarial activity IC50, Sierra Leone (D-6) [7]: 85.02 ng/mL

CC1CCC2C(C)C(OCCCC(=O)O)OC3OC4(C)CCC1C32OO4 (stereo not shown) [Compound 7c, Potassium 4-(10-Dihydroartemisininoxy)butyrate]
IC50 [6]: 10.5 ng/mL
In vitro antimalarial activity IC50, Sierra Leone (D-6) [7]: 75.52 ng/mL

CC1CCC2C(C)C(OCCC(=O)O)OC3OC4(C)CCC1C32OO4 (stereo not shown) [Compound 8b, 3-(10-Dihydroartemisininoxy)propionic Acid]
IC50 [6]: 35.6 ng/mL (≈ 100 nM)
In vitro antimalarial activity IC50, Sierra Leone (D-6) [7]: 51.74 ng/mL

CC1CCC2C(C)C(OCCCC(=O)O)OC3OC4(C)CCC1C32OO4 (stereo not shown) [Compound 8c, 4-(10-Dihydroartemisininoxy)butyric Acid]
In vitro antimalarial activity IC50, Indochina Clone (W-2) [6]: 8.04 ng/mL
In vitro antimalarial activity IC50, Sierra Leone (D-6) [7]: 17.90 ng/mL

CC1CCC2C(C)C(OCc3ccc(C(=O)O)cc3)OC3OC4(C)CCC1C32OO4 (stereo not shown) [Compound 8d, Para-(10-Dihydroartemisininoxy)methylbenzoic Acid]
In vitro antimalarial activity IC50, Indochina Clone (W-2) [6]: 1.38 ng/mL
In vitro antimalarial activity IC50, Sierra Leone (D-6) [7]: 4.07 ng/mL
Number of Cures (Plasmodium berghei; [8]): 5/5
Number of Cures (Plasmodium berghei; [9]): 5/5
Number of Cures (Plasmodium berghei; [10]): 5/5
detectable change (physchem; 2.5% K2CO3/D2O, room temperature, after 35 days): no detectable change
degraded at 1.5 h (physchem; 2.5% k2co3/d2o): 0%
degraded at 24 h (physchem; 2.5% k2co3/d2o): 0%
degraded at 48 h (physchem; 2.5% k2co3/d2o): 0%
degraded at 72 h (physchem; 2.5% k2co3/d2o): 0%
degraded at 96 h (physchem; 2.5% k2co3/d2o): 0%
degraded at 1608 h (physchem; 2.5% k2co3/d2o): < 3%

C[C@H]1[C@H](OC(=O)CCC(=O)O)O[C@@H]2O[C@@]3(C)CC[C@H]4[C@H](C)CC[C@@H]1[C@@]24OO3 [Sodium artesunate]
water solubility [2]: water soluble
